# Assay results as given in patent publication US7115623B2, “PDE IV inhibitors” (Aska Pharmaceuticals Co., Ltd., priority 2001, dated 2006).
# What was measured:
# Male Marshall ferrets = test: Emetic action; format: in vivo; settings: oral, observed within 12 hours
# Method: Male Marshall ferrets (each group consisting of 3 animals) as used herein fasted overnight. On the next day, a suspension of each test compound in 0.5% CMC—Na solution was administered orally to the animals. […] Next, each maximum tolerance dose against emesis was obtained. SB207499 was used for the reference compound in this assay.
# ICR mice = test: Toxicology study; format: in vivo; settings: oral 300 mg/10 ml/kg
# Method: Each Compound (Example Nos. 7 and 8) was administered orally to ICR mice (7 animals per group) as a test compound. […] Each test compound was suspended in 0.5% CMC—Na solution and given orally to the animal at a dose of 300 mg/10 ml/kg.
# [1] = test system: actively sensitized guinea pigs; test: Inhibition of antigen-induced immediate asthmatic response (airway resistance, Konzett-Rossler method); format: in vivo, Male Hartley outbred guinea pigs; settings: orally, 60 minutes prior to antigen-challenge, ovalbumin-sensitized guinea pigs, Probit method; for ED50: Cavia porcellus
# Method: Male Hartley outbred guinea pigs were sensitized by administering intraperitoneally physiological saline (0.5 ml) containing ovalbumin (1 mg, antigen) and 5×10^9 inactivated Bordetella pertussis dead cells (adjuvant). Eleven to thirteen days after the first sensitization, 0.05 ml of an ovalbumin solution (1 mg/ml) (ovalbumin is dissolved in physiological saline) was administered to the lateroabdominal region of each guinea pig intracutaneously. An establishment of sensitization was checked relying on cutaneous reaction. Only guinea pigs wherein significant reddening responses occurred 5 to 10 minutes later were employed in the next measurement test for airway resistance.
# The guinea pigs (3 animals per group) actively sensitized in the above step (1) were employed to measure for their airway pressure according to Konzett-Rossler method (Arch. Exp. Path. Pharmakol., 195, 71 (1940)).
# Thirteen days after the final sensitization, guinea pigs fasted overnight, and were on the next day anesthetized with a pentobarbital solution (30 mg/1.2 ml/kg, dissolved in physiological saline, intraperitoneal administration). After the guinea pigs were fixed in a supine position, their trachea was incised followed by insertion with one port of a 4-port cannula. Among the remaining 3 ports, 2 ports were connected to an artificial respirator (Model 683, Harvard). The animals were ventilated with 10 ml/kg of air per ventilation at a rate of 60 beats/min via the artificial respirator from the cannula. One port remainder was connected to a respiratory amplifier (AR-601G, Nihon Kohden, Japan) via an airflow resistance tube (TV-241T, Nihon Kohden, Japan) and a differential pressure transducer (TP-602T, Nihon Kohden, Japan) connected with a control box (RY-111S, Nihon Kohden, Japan). From a catheter inserted into a left carotid artery, blood pressures were monitored with a blood pressure measurement unit (AP641G, NEC Corp., Japan) via a blood pressure transducer (TP-300T, Nihon Kohden, Japan), and heart rates were recorded on a thermal recorder (WT-685G, Nihon Kohden, Japan), relying on blood pressure pulse waves after being led to a cardiograph unit (AT601G, Nihon Kohden, Japan).
# After airway pressure became stable, an ovalbumin solution. (1 mg/ml, dissolved in physiological saline) was administered at a dose of 1 ml/kg via a tube with which the right jugular vein of guinea pigs was cannulated.
# Each test compound was suspended in 0.5% CMC—Na solution and administered orally with an oral sound at a dose of 0.03 to 20 mg/2 ml/kg 60 minutes prior to the antigen-challenge. Control groups received only 0.5% CMC—Na solution in an equivalent amount. The pentobarbital-anesthetization and tracheal incision were conducted 30 minutes prior to the antigen-challenge.
# Each percent reduction of increase in airway resistance (each test compound-administered group versus control group) was calculated according to the equation given below. ED50 was obtained by Probit method.
# [2] = test system: PDE IV isozymes separated from U937 culture cells; test: PDE IV inhibition ([3H]-cAMP hydrolysis); format: biochemical; settings: cAMP 1 μM as substrate, 30° C., 20 minutes, Probit method
# Method: PDE IV isozymes as used herein were separated from U937 culture cells by using an anion exchange chromatography. Type IV PDE isozyme was admixed with ethylene glycol (EG) to adjust the final EG concentration to 30%, then stored at −20° C. and diluted when used. The enzymatic activity for PDE IV was measured using cAMP as a substrate.
# Each test compound was dissolved in DMSO to adjust the final concentration to 1% (2.5 μl/tube). Incubation buffer solution (pH7.5): • Tris-HCl (50 mM), magnesium chloride (6 mM), dithiothreitol (2.5 mM), 5-nucleotidase (4 μg/ml), bovine serum albumin (0.23 mg/ml), and cAMP (1 μM).
# A mixture of the aforementioned test compound solution and the buffer solution was incubated at 30° C. for 20 minutes. The reaction was quenched by admixing with 1 ml of anion exchange resin slurry (AG1-X8, 200–400 meshes, chloride form; Bio-Rad) to absorb unreacted substrates. After the reaction stopped, the mixture was centrifuged at 800×g for 10 minutes, and the resulting supernatant was collected with vials in 250 μl aliquots. To each vial was added 5 ml of ACS-II (scintillator, Amersham). The radioactivity was measured with a liquid scintillator counter for [^3H]-adenosine and set as the PDE IV activity.
# TNF-α production = test: Inhibition of TNF-α production in galactosamine- and LPS-stimulation; format: in vivo, C3H/HeN mice; settings: Mus musculus; oral, 1 hour before i.v. galactosamine 800 mg/kg and LPS 5 μg/kg; serum TNF-α by ELISA 1 hour later
# Method: A suspension of each test compound in 0.5% CMC—Na solution was administered orally to C3H/HeN mice at a dose of 0.10 to 10 mg/kg. One hour later, the animals received intravenously galactosamine at a dose of 800 mg/kg and LPS at a dose 5 μg/kg to raise the induction of TNF-α production. One hour later after the galactosamine- and LPS-administration, amounts of TNF-α in serum samples were measured by ELISA.
compound,measurement,setting,value
"O=c1c(CCCc2cccnc2)cc2cccnc2n1-c1ccc2nsnc2c1 [Example 2, 1-(2,1,3-Benzothiadiazol-5-yl)-3-[3-(pyridin-3-yl)propyl]-1,8-naphthyridin-2(1H)-one]",melting point,,173.5 to 174.5 °C
"O=c1c(CCCc2ccccn2)cc2cccnc2n1-c1ccc2nsnc2c1 [Example 3, 1-(2,1,3-Benzothiadiazol-5-yl)-3-[3-(pyridin-2-yl)propyl]-1,8-naphthyridin-2(1H)-one]",melting point,,169.5 to 170.5 °C
"O=c1c(CCCc2cncnc2)cc2cccnc2n1-c1cccc([N+](=O)[O-])c1 [Example 4, 1-(3-Nitrophenyl)-3-[3-(pyrimidin-5-yl)propyl]-1,8-naphthyridin-2(1H)-one]",melting point,,175 to 175.5 °C
"O=c1c(CCCc2cccnn2)cc2cccnc2n1-c1cccc([N+](=O)[O-])c1 [Example 5, 1-(3-Nitrophenyl)-3-[3-(pyridazin-3-yl)propyl]-1,8-naphthyridin-2(1H)-one]",melting point,,234 to 235 °C
"O=c1c(CCCc2cnccn2)cc2cccnc2n1-c1cccc([N+](=O)[O-])c1 [Example 6, 1-(3-Nitrophenyl)-3-[3-(pyrazin-2-yl)propyl]-1,8-naphthyridin-2(1H)-one]",melting point,,194 to 195 °C
"CN(C)c1cccc(-n2c(=O)c(CCCc3ccncc3)cc3cccnc32)c1 [Example 9, 1-(3-Dimethylaminophenyl)-3-[3-(pyridin-4-yl)propyl]-1,8-naphthyridin-2(1H)-one]",melting point,,124 to 127 °C
"CC(=O)Nc1cccc(-n2c(=O)c(CCCc3ccncc3)cc3cccnc32)c1 [Example 10, 1-(3-Acetylaminophenyl)-3-[3-(pyridin-4-yl)propyl]-1,8-naphthyridin-2(1H)-one]",melting point,,200 to 202 °C
"CC(CCc1cc2cccnc2n(-c2cccc(N)c2)c1=O)c1ccncc1 (centres unmarked) [Example 13, 1-(3-Aminophenyl)-3-[3-methyl-3-(pyridin-4-yl)propyl]-1,8-naphthyridin-2(1H)-one]",melting point,,83 to 91 °C
"CC(CCc1cc2cccnc2n(-c2cccc(N(C)C)c2)c1=O)c1ccncc1 (centres unmarked) [Example 15, 1-(3-Dimethylaminophenyl)-3-[3-methyl-3-(pyridin-4-yl)propyl]-1,8-naphthyridin-2(1H)-one]",melting point,,148 to 154 °C
"O=c1c(CCC(O)c2ccncc2)cc2cccnc2n1-c1cccc([N+](=O)[O-])c1 (centres unmarked) [Example 20, 1-(3-nitrophenyl)-3-[3-hydroxy-3-(pyridin-4-yl)propyl]-1,8-naphthyridin-2(1H)-one]",melting point,,235 to 236 °C
"CC(=O)OC(CCc1cc2cccnc2n(-c2cccc([N+](=O)[O-])c2)c1=O)c1ccncc1 (centres unmarked) [Example 22, 1-(3-Nitrophenyl)-3-[3-acetyloxy-3-(pyridin-4-yl)propyl]-1,8-naphthyridin-2(1H)-one]",melting point,,69 to 71 °C
"Nc1cccc(-n2c(=O)c(CCC(O)c3ccncc3)cc3cccnc32)c1 (centres unmarked) [Example 23, 1-(3-Aminophenyl)-3-[3-hydroxy-3-(pyridin-4-yl)propyl]-1,8-naphthyridin-2(1H)-one]",melting point,,209 to 211 °C
"O=c1c(CCCc2ccncc2)cc2cccnc2n1-c1cccc2nsnc12 [Example 24, 1-(2,1,3-Benzothiadiazol-4-yl)-3-[3-(pyridin-4-yl)propyl]-1,8-naphthyridin-2(1H)-one]",melting point,,191 to 192 °C
"O=c1c(CCCc2ccncc2)cc2cccnc2n1-c1ccc(Cl)c([N+](=O)[O-])c1 [Example 25, 1-(4-Chloro-3-nitrophenyl)-3-[3-(pyridin-4-yl)propyl]-1,8-naphthyridin-2(1H)-one]",melting point,,136 to 137 °C
"O=c1c(CCCc2ccncc2)cc2cccnc2n1-c1ccc2nonc2c1 [Example 27, 1-(2,1,3-Benzoxadiazol-5-yl)-3-[3-(pyridin-4-yl)propyl]-1,8-naphthyridin-2(1H)-one]",melting point,,192 to 194 °C
"Nc1cccc(-n2c(=O)c(CCCc3cc[n+]([O-])cc3)cc3cccnc32)c1 [Example No. 8, 1-(3-Aminophenyl)-3-[3-(1-oxypyridin-4-yl)propyl]-1,8-naphthyridin-2(1H)-one]",Emetic actions at asthmatic response-inhibitory ED50 level,Male Marshall ferrets; dose = ED50 of Assay Example 2,no observation for emetic actions
same,Body weight gain,ICR mice,No reduction of body weight gains was observed
same,Mortality,ICR mice,None of the animals were died
same,Other parameters (general health conditions),ICR mice,no abnormality was observed
same,ED50,[1],1.2 mg/kg
same,IC50,[2],0.067 µM
"CC(CCc1cc2cccnc2n(-c2cccc([N+](=O)[O-])c2)c1=O)c1ccncc1 (centres unmarked) [Example No. 11, 1-(3-Nitrophenyl)-3-[3-methyl-3-(pyridin-4-yl)propyl]-1,8-naphthyridin-2(1H)-one]",ED50,[1],0.12 mg/kg
same,melting point,,154 to 155 °C
same,IC50,[2],0.07 µM
"CC(CCc1cc2cccnc2n(-c2cccc([N+](=O)[O-])c2)c1=O)c1cc[n+]([O-])cc1 (centres unmarked) [Example No. 12, 1-(3-nitrophenyl)-3-[3-methyl-3-(1-oxypyridin-4-yl)propyl]-1,8-naphthyridin-2(1H)-one]",ED50,[1],0.21 mg/kg
same,melting point,,182.5 to 196.5 °C
same,IC50,[2],0.13 µM
"O=C(CCc1cc2cccnc2n(-c2cccc([N+](=O)[O-])c2)c1=O)c1ccncc1 [Example No. 17, 1-(3-Nitrophenyl)-3-[3-oxy-3-(pyridin-4-yl)propyl]-1,8-naphthyridin-2(1H)-one]",ED50,[1],0.71 mg/kg
same,IC50,[2],0.45 µM
"Nc1cccc(-n2c(=O)c(CCC(=O)c3cc[n+]([O-])cc3)cc3cccnc32)c1 [Example No. 19, 1-(3-Aminophenyl)-3-[3-oxo-3-(1-oxypyridin-4-yl)propyl]-1,8-naphthyridin-2(1H)-one]",Inhibition of Asthmatic response ED50,[1],0.38 mg/kg
"COc1ccc(C2CNC(=O)C2)cc1OC1CCCC1 (centres unmarked) [Rolipram, reference compound]",ED50,[1],0.51 mg/kg
"COc1ccc([C@]2(C#N)CC[C@@H](C(=O)O)CC2)cc1OC1CCCC1 [SB207499, cis-4-cyano-4-[3-(cyclopentyloxy)-4-methoxyphenyl]cyclohexane-1-carboxylic acid, reference compound]",Emetic activity at a half of the ED50 dose,Male Marshall ferrets; a half of the ED50 dose of Assay Example 2,elicitation of emetic activity has been found
same,ED50,TNF-α production,0.9 mg/kg
same,ED50,[1],20 mg/kg
same,IC50,[2],0.03 µM
